Source: article PMC11078746 (Nature, 2024)
Several values for one entry are separate records, joined by “and”; a condition that tells them apart may be missing. Equal entries are not always repeated.

Experiment: Mouse body weight, SW48 xenograft study with HRO761
Assay type: in vivo
Method: All animal studies were conducted in accordance with ethics and procedures covered by permit BS-2275 and BS-1975 issued by the Kantonales Veterinäramt Basel-Stadt and in strict adherence to guidelines of the Eidgenössisches Tierschutzgesetz and the Eidgenössische Tierschutzverordnung, Switzerland. All animal studies were approved by the internal ethics committee. All animals had access to food and water ad libitum and were identified with transponders. They were housed in a specific-pathogen-free facility in IVC racks under a 12 h–12 h light–dark cycle. To establish cell-line-derived xenograft models, 6–7-week-old female athymic nude (Crl:NU(NCr)-Foxn1^nu) or SCID-BEIGE (CB17.Cg-PrkdcscidLystbg-J/Crl) mice from Charles River were engrafted subcutaneously with 5 million tumour cells in HBSS (H6648, Sigma-Aldrich). For SNU-407, Lovo, IM95, RL95.2, Ishikawa and IGROV-1, the cells were concentrated in 50% Matrigel (354234, Corning). Patient-derived xenografts were induced and expanded by transplantation as previously described. […] For the efficacy experiment, mice were randomized into groups (n = 5–6) for a mean tumour size of 100–150 mm^3. […] Blood samples were collected on day 7 and 91. […] Tumour responses are reported with the measures of tumour volumes from the treatment start. […] Animals were randomized (n = 3) and tumour samples were collected at 0, 1, 4, 8 and 24 h on the first day and then collected 4 h after the last treatment on day 3, 8, 10, 14 (including a 24 h timepoint), 17 and 21. Tumours were excised, weighed, either frozen in liquid nitrogen and cryogenic dry pulverized with the CryoPrep system (model CP-02, Covaris) or processed to FFPE after fixation. […] On day 12, blood samples were collected for PK analysis. On the last day (3 h after the last treatment), tumours were excised, weighed, frozen in liquid nitrogen and cryogenic dry pulverized for PD analysis.

[1] = HRO761 20mg/kg, day 0 post 1st dose
[2] = HRO761 40mg/kg, day 0 post 1st dose
[3] = HRO761 60mg/kg, day 0 post 1st dose

Compound: CCc1c(N2CCN(C(=O)c3ncnc(C)c3O)CC2)c(=O)n2nc(C3=CCOCC3)nc2n1CC(=O)Nc1ccc(C(F)(F)F)cc1Cl [HRO761]
- Delta BW change, individual mouse [1]: 0%
- Mean DBW [1]: 0.00%
- Mean DBW (HRO761 20mg/kg, day 3 post 1st dose): -0.35%
- Delta BW change, individual mouse (HRO761 20mg/kg, day 3 post 1st dose, 20 mg/kg): 1.24% and 0% (2×) and -0.78% and -2.23%
- Mean DBW (HRO761 20mg/kg, day 7 post 1st dose): 0.52%
- Delta BW change, individual mouse (HRO761 20mg/kg, day 7 post 1st dose, 20 mg/kg): 2.07% and 1.26% and 1.16% and -1.17% and -0.74%
- Mean DBW (HRO761 20mg/kg, day 10 post 1st dose): 1.67%
- Delta BW change, individual mouse (HRO761 20mg/kg, day 10 post 1st dose, 20 mg/kg): 3.32% and 6.28% and -1.54% and -1.56% and 1.86%
- Mean DBW (HRO761 20mg/kg, day 14 post 1st dose): 1.33%
- Delta BW change, individual mouse (HRO761 20mg/kg, day 14 post 1st dose, 20 mg/kg): 1.66% and 5.86% and -2.32% and -0.78% and 2.23%
- Mean DBW (HRO761 20mg/kg, day 17 post 1st dose): 2.56%
- Mean DBW (HRO761 20mg/kg, day 21 post 1st dose): 4.75%
- Mean DBW (HRO761 20mg/kg, day 24 post 1st dose): 2.97%
- Mean DBW (HRO761 20mg/kg, day 28 post 1st dose): 3.11%
- Mean DBW (HRO761 20mg/kg, day 31 post 1st dose): 2.34%
- Mean DBW (HRO761 20mg/kg, day 35 post 1st dose): 3.43%
- Mean DBW (HRO761 20mg/kg, day 38 post 1st dose): 2.26%
- Mean DBW (HRO761 20mg/kg, day 42 post 1st dose): 3.84%
- Mean DBW (HRO761 20mg/kg, day 45 post 1st dose): 3.81%
- Delta BW change, individual mouse [2]: 0%
- Mean DBW [2]: 0.00%
- Mean DBW (HRO761 40mg/kg, day 3 post 1st dose): -0.77%
- Delta BW change, individual mouse (HRO761 40mg/kg, day 3 post 1st dose, 40 mg/kg): -0.91% and 0.87% and -5.78% and -3.41% and 5.36%
- Mean DBW (HRO761 40mg/kg, day 7 post 1st dose): 2.11%
- Delta BW change, individual mouse (HRO761 40mg/kg, day 7 post 1st dose, 40 mg/kg): 3.18% and 5.63% and -3.25% and -1.14% and 6.13%
- Mean DBW (HRO761 40mg/kg, day 10 post 1st dose): 1.41%
- Delta BW change, individual mouse (HRO761 40mg/kg, day 10 post 1st dose, 40 mg/kg): 4.09% and 1.73% and -2.17% and 2.27% and 1.15%
- Mean DBW (HRO761 40mg/kg, day 14 post 1st dose): 4.08%
- Delta BW change, individual mouse (HRO761 40mg/kg, day 14 post 1st dose, 40 mg/kg): 5% and 7.36% and -0.36% and 4.17% and 4.21%
- Mean DBW (HRO761 40mg/kg, day 17 post 1st dose): 3.43%
- Mean DBW (HRO761 40mg/kg, day 21 post 1st dose): 5.66%
- Mean DBW (HRO761 40mg/kg, day 24 post 1st dose): 6.90%
- Mean DBW (HRO761 40mg/kg, day 28 post 1st dose): 6.44%
- Mean DBW (HRO761 40mg/kg, day 31 post 1st dose): 5.60%
- Mean DBW (HRO761 40mg/kg, day 35 post 1st dose): 6.99%
- Mean DBW (HRO761 40mg/kg, day 38 post 1st dose): 6.65%
- Mean DBW (HRO761 40mg/kg, day 42 post 1st dose): 6.89%
- Mean DBW (HRO761 40mg/kg, day 45 post 1st dose): 7.16%
- Mean DBW (HRO761 40mg/kg, day 49 post 1st dose): 8.78%
- Mean DBW (HRO761 40mg/kg, day 52 post 1st dose): 8.33%
- Mean DBW (HRO761 40mg/kg, day 56 post 1st dose): 7.63%
- Mean DBW (HRO761 40mg/kg, day 59 post 1st dose): 8.29%
- Mean DBW (HRO761 40mg/kg, day 63 post 1st dose): 9.98%
- Mean DBW (HRO761 40mg/kg, day 66 post 1st dose): 10.38%
- Mean DBW (HRO761 40mg/kg, day 70 post 1st dose): 8.92%
- Mean DBW (HRO761 40mg/kg, day 73 post 1st dose): 8.55%
- Mean DBW (HRO761 40mg/kg, day 76 post 1st dose): 11.97%
- Mean DBW (HRO761 40mg/kg, day 79 post 1st dose): 7.46%
- Mean DBW (HRO761 40mg/kg, day 83 post 1st dose): 7.38%
- Mean DBW (HRO761 40mg/kg, day 86 post 1st dose): 9.81%
- Delta BW change, individual mouse [3]: 0%
- Mean DBW [3]: 0.00%
- Mean DBW (HRO761 60mg/kg, day 3 post 1st dose): -1.52%
- Delta BW change, individual mouse (HRO761 60mg/kg, day 3 post 1st dose, 60 mg/kg): -2.98% and 1.63% and -3.35% and -4.6% and 1.71%
- Mean DBW (HRO761 60mg/kg, day 7 post 1st dose): -1.16%
- Delta BW change, individual mouse (HRO761 60mg/kg, day 7 post 1st dose, 60 mg/kg): -1.7% and -3.27% and 1.26% and -3.35% and 1.28%
- Mean DBW (HRO761 60mg/kg, day 10 post 1st dose): -1.23%
- Delta BW change, individual mouse (HRO761 60mg/kg, day 10 post 1st dose, 60 mg/kg): -0.43% and -6.94% and 7.11% and -5.02% and -0.85%
- Mean DBW (HRO761 60mg/kg, day 14 post 1st dose): 0.014%
- Delta BW change, individual mouse (HRO761 60mg/kg, day 14 post 1st dose, 60 mg/kg): -0.43% and -2.86% and 6.69% and -4.18% and 0.85%
- Mean DBW (HRO761 60mg/kg, day 17 post 1st dose): -0.23%
- Mean DBW (HRO761 60mg/kg, day 21 post 1st dose): 1.03%
- Mean DBW (HRO761 60mg/kg, day 24 post 1st dose): 2.43%
- Mean DBW (HRO761 60mg/kg, day 28 post 1st dose): 5.12%
